From patent publication US20250387363A1, “LIQUID EPINEPHRINE PRODRUG FORMULATIONS AND LIQUID EPINEPHRINE FORMULATIONS” (Insignis Therapeutics, Inc., priority 2024, published 2025)

Legend:
[1] = system: healthy adult human volunteers; test: Cross study pharmacodynamic response comparison (SBP, DBP, PR change from baseline) vs EpiPen 0.3 mg; type: in vivo; conditions: sublingual liquid dosage form, 10 mg dipivefrin HCl, two hours postdose
[2] = Cross study epinephrine PK comparison, L-dipivefrin HCl formulations vs EpiPen 0.3 mg; type: in vivo, human; conditions: oral formulations administered sublingually; Table 10.1
Text: FIG. 5. […] Study period I and study period II refer to the two test periods described in example 7 which are separated by a 1 week washout period.

[3] = rabbits; cited from earlier work

Row | Structure (SMILES) | Median SBP (Systolic Blood Pressure) change from baseline response compared to EpiPen 0.3 mg injection ([1]; FIG. 6) | Median DBP (Diastolic Blood Pressure) change from baseline response compared to EpiPen 0.3 mg injection ([1]; FIG. 7) | Median PR (Pulse Rate) change from baseline response compared to EpiPen 0.3 mg injection ([1]; FIG. 8) | PD response (SBP, DBP and PR change from baseline) compared to EpiPen 0.3 mg injection ([1]; FIGS. 6-8) | Epinephrine exposures compared to Epipen 0.3 mg [2] | Sublingual dose giving systemic absorption equivalent to IM epinephrine [3]
1 | CNC[C@H](O)c1ccc(OC(=O)C(C)(C)C)c(OC(=O)C(C)(C)C)c1.Cl [L-dipivefrin HCl, L-dipivefrin hydrochloride] | greater | greater | comparable or greater | comparable or greater | comparable | –
2 | CNC[C@H](O)c1ccc(O)c(O)c1 [epinephrine, 4-[(1R)-1-hydroxy-2-(methylamino)ethyl]benzene-1,2-diol] | – | – | – | – | – | 40 mg
